The record followed here is patent publication US20120039820A1 (Glaxo Group Limited, priority 2009, published 2012).

The subject of one test is Streptococcus mutans. As to the kind of experiment: MIC test (broth microdilution, turbidity). It is filed as cell-based. Particulars: TSB, 37° C., 24 hours. The method, then:
(§1) The MIC of a material composition was determined by the following method. A fresh culture of the test inoculum of each bacterium was diluted in sterile 0.1% special peptone solution to give a concentration of approximately 10^6 colony forming units (cfu) per ml. Test samples of material were diluted in sterile tryptone soya broth (TSB) to give an initial stock solution, typically of 1% or 2% (10,000 or 20,000 ppm). However, it will be appreciated that the concentration of the initial stock solution of material can be varied if desired to investigate a different range of concentrations. Each row of a standard, 96-well plastic microtitre plate (labelled A-H) was allocated to one sample, i. e. eight samples per plate. Row H contained only TSB for use as a bacterial control to indicate the degree of turbidity resulting from bacterial growth in the absence of any test material.
(§2) Aseptically, 200 μl of the initial dilution of material was transferred to the 1st and 7th well of the appropriate row. All other test wells were filled with 100 μl of sterile TSB using an 8- channel micro-pipette. The contents of each of the wells in column 1 were mixed by sucking samples up and down the pipette tips, before 100 μl was transferred to column 2.
(§3) The same sterile pipette tips were used to transfer 100 μl of each well in column 7 into the appropriate well in column 8. This set of eight tips was then discarded into disinfectant solution. Using eight fresh, sterile tips the process was repeated by transferring 100 μl from column 2 into column 3 (and into 8 and 9). The process was continued until all the wells in columns 6 and 12 contained 200 μl. After mixing, 100 μl was discarded from wells in columns 6 and 12 to waste. Finally, 100 μl of pre-diluted bacterial test culture (approx 10^6 cfu/ml) was added, thus giving a final volume of 200 μl in each well.
(§4) A blank plate was prepared for each set of eight samples in exactly the same way, except that 100 μl of sterile TSB was added instead of the bacterial culture. This plate was used as the control plate against which the test plate (s) could be read.
(§5) Test and control plates were then sealed using autoclave tape and incubated at 37° C. for 24 hours. The wells were examined after 24 hours for turbidity to determine if the material had inhibited growth or not. Plates are then read in a suitable microtitre plate reader at an absorbance of 540 nm as a measure of turbidity resulting from bacterial growth. The control, un-inoculated plate for each set of samples was read first, and the plate reader then programmed to use the control readings to blank all other plate readings for the inoculated plates for the same set of test materials (i. e. removing turbidity due to material and possible colour changes during incubation). Thus, the corrected readings generated were absorbances resulting from turbidity from bacterial growth.
In general terms: Dilution methods test growth across graded concentrations, often in twofold steps.

A further test has as its system Staphylococcus aureus. Briefly: MIC test (broth microdilution, turbidity). Format: cell-based. As to conditions: TSB, 37° C., 24 hours. The method, then: as §1, §2, §3, §4, §5
The subject of another test is Escherichia coli. As to the kind of experiment: MIC test (broth microdilution, turbidity). Format: cell-based. Particulars: TSB, 37° C., 24 hours. The method, then:
as §1, §2, §3, §4, §5

Another test relates to S. aureus. As to the kind of experiment: Kill time suspension test. It is filed as cell-based, Staphylococcus aureus.

Procedure for S. aureus: This is set aside for approximately 2 minutes. 8 ml of test product is added, a timing clock started and immediately vortexed for 5 seconds.
To 8 ml of ‘Test Sample’ add 1 ml of sterile purified water and 1 ml of synthetic saliva. This is the ‘validation solution’.
The mean number of survivors is calculated for the each test and appropriate control samples, and expressed as the log to the base 10 (Log count).

In the case of `Cc1cc(O)ccc1C(C)C` [IPMP, 4-isopropyl-3-methylphenol], the MIC was determined as 1250 parts per million in the test with Streptococcus mutans, 156 parts per million with Staphylococcus aureus and 312 parts per million in the test with Escherichia coli.
With zinc gluconate [Zn Gluconate], the MIC with Streptococcus mutans worked out at 6250 parts per million; against Staphylococcus aureus, 6250 parts per million; with Escherichia coli, 1560 parts per million. For the same compound, in the test on S. aureus, the “kill (in words)” value is given as “ineffective”.
